Reference: patent publication US20230048132A1, “CYCLIN-DEPENDENT KINASE INHIBITORS” (SPV THERAPEUTICS INC., priority 2018, published 2023)
Like-named read-outs stand apart in the source and are kept apart here.

Columns and labels:
CDK6-CYCLIND3 = molecular target: T1, CDK6-CYCLIND3 (Homo sapiens, UniProt Q00534); assay: CDK inhibition assay (microfluidic LabChip, IC50 format); type: biochemical
T1 construct: purchased Carna

CDK4-CYCLIND1 = CDK4-CYCLIND1 (Homo sapiens, UniProt P11802); assay: as above
Chain of CDK4-CYCLIND1 (P11802 whole entry): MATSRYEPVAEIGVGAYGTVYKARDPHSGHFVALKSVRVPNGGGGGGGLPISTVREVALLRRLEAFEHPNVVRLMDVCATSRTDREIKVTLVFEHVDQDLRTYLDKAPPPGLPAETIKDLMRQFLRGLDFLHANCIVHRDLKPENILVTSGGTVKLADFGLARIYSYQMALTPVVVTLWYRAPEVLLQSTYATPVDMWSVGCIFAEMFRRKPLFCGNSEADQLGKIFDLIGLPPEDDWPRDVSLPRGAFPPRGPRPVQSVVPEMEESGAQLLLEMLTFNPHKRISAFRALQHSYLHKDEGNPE
Chain of CDK4-CYCLIND1 (P24385 whole entry partner): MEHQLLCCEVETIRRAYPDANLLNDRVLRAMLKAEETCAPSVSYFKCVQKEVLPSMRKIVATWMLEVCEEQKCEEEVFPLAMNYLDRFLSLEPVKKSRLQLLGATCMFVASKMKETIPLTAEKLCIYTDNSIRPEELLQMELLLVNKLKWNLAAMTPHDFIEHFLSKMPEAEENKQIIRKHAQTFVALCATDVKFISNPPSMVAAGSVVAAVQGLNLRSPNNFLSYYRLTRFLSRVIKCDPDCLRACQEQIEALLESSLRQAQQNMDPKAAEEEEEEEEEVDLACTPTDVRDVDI

[1] = Table 4b, upper part, read-out: CDK6 IC50
[2] = CDK4 IC50, Table 4b, upper part
[3] = Table 4b, lower part, read-out: CDK6 CyclinD3 IC50
[4] = CDK4 CyclinD1 IC50, Table 4b, lower part, a second value in parentheses for some compounds

T1 sequence (Q00534 whole entry): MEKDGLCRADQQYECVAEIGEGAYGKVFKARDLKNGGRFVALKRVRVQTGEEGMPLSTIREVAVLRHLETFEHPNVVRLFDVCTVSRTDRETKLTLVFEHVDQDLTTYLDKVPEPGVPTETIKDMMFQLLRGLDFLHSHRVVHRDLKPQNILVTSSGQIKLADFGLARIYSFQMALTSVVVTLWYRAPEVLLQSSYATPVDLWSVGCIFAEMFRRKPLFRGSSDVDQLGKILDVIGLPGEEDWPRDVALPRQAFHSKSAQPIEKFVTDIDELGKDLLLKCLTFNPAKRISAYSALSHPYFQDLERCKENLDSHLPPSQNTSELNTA
T1 sequence (P30281 whole entry partner): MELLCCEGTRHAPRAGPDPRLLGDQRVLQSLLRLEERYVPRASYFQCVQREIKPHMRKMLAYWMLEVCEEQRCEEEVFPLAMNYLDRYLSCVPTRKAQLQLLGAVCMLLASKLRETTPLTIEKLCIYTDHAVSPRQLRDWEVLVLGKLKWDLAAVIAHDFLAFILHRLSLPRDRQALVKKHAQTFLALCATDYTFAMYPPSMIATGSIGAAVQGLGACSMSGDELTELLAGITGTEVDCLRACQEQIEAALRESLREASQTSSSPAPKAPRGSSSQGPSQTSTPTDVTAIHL

Row | IC50 (CDK6-CYCLIND3; [1]) [nM] | IC50 (CDK4-CYCLIND1; [2]) [nM] | Structure (SMILES) | also measured
1 | 13.3 | 7.29 | O=C1NCCC12Cc1cnc(Nc3ccc(N4CCC(N5CCOCC5)CC4)cn3)nc1N(C1CCCC1)C2=O (stereo not drawn) [Example D39, 8-cyclopentyl-2-((5-(4-morpholinopiperidin-1-yl)pyridin-2-yl)amino)-5,8-dihydro-7H-spiro[pyrido[2,3-d]pyrimidine-6,3′-pyrrolidine]-2′,7-dione] | 
2 | 311 | 105 | CC(C)N1CCN(c2ccc(Nc3ncc4c(n3)N(C3CCCC3)C(=O)C3(CC(=O)N(C)C3=O)C4)cn2)CC1 (stereo not drawn) [Example D26, 8-cyclopentyl-2-((6-(4-isopropylpiperazin-1-yl)pyridin-3-yl)amino)-1′-methyl-5,8-dihydro-7H-spiro[pyrido[2,3-d]pyrimidine-6,3′-pyrrolidine]-2′,5′,7-trione] | 
3 | 373 | 127 | CN1C(=O)CC2(Cc3cnc(Nc4ccc(N5CCNCC5)nc4)nc3N(C3CCCC3)C2=O)C1=O (stereo not drawn) [Example D24, 8-cyclopentyl-1′-methyl-2-((6-(piperazin-1-yl)pyridin-3-yl)amino)-5,8-dihydro-7H-spiro[pyrido[2,3-d]pyrimidine-6,3′-pyrrolidine]-2′,5′,7-trione] | 
4 | 6.11 | 2.99 | CC(C)N1CCN(c2ccc(Nc3ncc4c(n3)N(C3CCCC3)C(=O)C3(CCNC3=O)C4)nc2)CC1 (stereo not drawn) [Example D9, 8-cyclopentyl-2-((5-(4-isopropylpiperazin-1-yl)pyridin-2-yl)amino)-5,8-dihydro-7H-spiro[pyrido[2,3-d]pyrimidine-6,3′-pyrrolidine]-2′,7-dione] | 
5 | 56.5 | 44.6 | O=C1NCCC12Cc1cnc(Nc3ccc(OCCN4CCCCC4)cn3)nc1N(C1CCCC1)C2=O (stereo not drawn) [Example D34, 8-cyclopentyl-2-((5-(2-(piperidin-1-yl)ethoxy)pyridin-2-yl)amino)-5,8-dihydro-7H-spiro[pyrido[2,3-d]pyrimidine-6,3′-pyrrolidine]-2′,7-dione] | 
6 | 360 | 83.6 | CC(C)N1CCN(c2ccc(Nc3ncc4c(n3)N(C3CCCC3)C(=O)C3(CCN(C)C3=O)C4)cc2)CC1 (stereo not drawn) [Example D2, 8-cyclopentyl-2-((4-(4-isopropylpiperazin-1-yl)phenyl)amino)-1′-methyl-5,8-dihydro-7H-spiro[pyrido[2,3-d]pyrimidine-6,3′-pyrrolidine]-2′,7-dione] | 
7 | 8.36 | 3.23 | CN(C)[C@H]1CCN(C(=O)c2ccc(Nc3ncc4c(n3)N(C3CCCC3)C(=O)C3(CCNC3=O)C4)cc2)C1 (stereo partly drawn) [Example D46, 8-cyclopentyl-2-((4-((S)-3-(dimethylamino)pyrrolidine-1-carbonyl)phenyl)amino)-5,8-dihydro-7H-spiro[pyrido[2,3-d]pyrimidine-6,3′-pyrrolidine]-2′,7-dione] | 
8 | 84.1 | 27 | CN1CCC2(Cc3cnc(Nc4ccc(N5CCNCC5)cc4)nc3N(C3CCCC3)C2=O)C1=O (stereo not drawn) [Example D1, 8-cyclopentyl-1′-methyl-2-((4-(piperazin-1-yl)phenyl)amino)-5,8-dihydro-7H-spiro[pyrido[2,3-d]pyrimidine-6,3′-pyrrolidine]-2′,7-dione] | 
9 | 198 | 50.7 | CN1C(=O)CC2(Cc3cnc(Nc4ccc(N5CCNCC5)cc4)nc3N(C3CCCC3)C2=O)C1=O (stereo not drawn) [Example D20, 8-cyclopentyl-1′-methyl-2-((4-(piperazin-1-yl)phenyl)amino)-5,8-dihydro-7H-spiro[pyrido[2,3-d]pyrimidine-6,3′-pyrrolidine]-2′,5′,7-trione] | 
10 |  |  | CC(C)N1CCN(c2ccc(Nc3ncc4c(n3)N(C35CC(C3)C5)C(=O)[C@]3(CCNC3=O)C4)cc2F)CC1 [Example D194, (S)-8-(bicyclo[1.1.1]pentan-1-yl)-2-((3-fluoro-4-(4-isopropylpiperazin-1-yl)phenyl)amino)-5,8-dihydro-7H-spiro[pyrido[2,3-d]pyrimidine-6,3′-pyrrolidine]-2′,7-dione] | IC50 (CDK6-CYCLIND3; [3]): 31.2 nM; IC50 (CDK4-CYCLIND1; [4]): 17.4 nM
11 | 166 | 53 | CC(C)N1CCN(c2ccc(Nc3ncc4c(n3)N(C3CCCC3)C(=O)C3(CCN(C)C3=O)C4)cn2)CC1 (stereo not drawn) [Example D18, 8-cyclopentyl-2-((6-(4-isopropylpiperazin-1-yl)pyridin-3-yl)amino)-1′-methyl-5,8-dihydro-7H-spiro[pyrido[2,3-d]pyrimidine-6,3′-pyrrolidine]-2′,7-dione] | 
12 | 65400 | 17100 | CN1C(=O)CC2(Cc3cnc(Nc4ccc(N5CCNCC5)cn4)nc3N(C3CCCC3)C2=O)C1=O (stereo not drawn) [Example D23, 8-cyclopentyl-1′-methyl-2-((5-(piperazin-1-yl)pyridin-2-yl)amino)-5,8-dihydro-7H-spiro[pyrido[2,3-d]pyrimidine-6,3′-pyrrolidine]-2′,5′,7-trione] | 
13 | 8.81 | 5.25 | O=C1NCCC12Cc1cnc(Nc3ccc(OCCN4CCCC4)c(F)c3)nc1N(C1CCCC1)C2=O (stereo not drawn) [Example D16, 8-cyclopentyl-2-((3-fluoro-4-(2-(pyrrolidin-1-yl)ethoxy)phenyl)amino)-5,8-dihydro-7H-spiro[pyrido[2,3-d]pyrimidine-6,3′-pyrrolidine]-2′,7-dione] | 
14 | 455 | 135 | CN1CCN(c2ccc(Nc3ncc4c(n3)N(C3CCCC3)C(=O)C3(CC(=O)N(C)C3=O)C4)cn2)CC1 (stereo not drawn) [Example D25, 8-cyclopentyl-1′-methyl-2-((6-(4-methylpiperazin-1-yl)pyridin-3-yl)amino)-5,8-dihydro-7H-spiro[pyrido[2,3-d]pyrimidine-6,3′-pyrrolidine]-2′,5′,7-trione] | 
15 | 10.2 | 4.41 | O=C1NCCC12Cc1cnc(Nc3ccc(N4CCOCC4)c(F)c3)nc1N(C1CCCC1)C2=O (stereo not drawn) [Example D17, 8-cyclopentyl-2-((3-fluoro-4-morpholinophenyl)amino)-5,8-dihydro-7H-spiro[pyrido[2,3-d]pyrimidine-6,3′-pyrrolidine]-2′,7-dione] | 
16 | 4.38 | 2.09 | O=C1NCCC12Cc1cnc(Nc3ccc(N4CCNCC4)c(F)c3)nc1N(C1CCCC1)C2=O (stereo not drawn) [Example D11, 8-cyclopentyl-2-((3-fluoro-4-(piperazin-1-yl)phenyl)amino)-5,8-dihydro-7H-spiro[pyrido[2,3-d]pyrimidine-6,3′-pyrrolidine]-2′,7-dione] | IC50 (CDK6-CYCLIND3; Table 3, second value of the cell CDK4/CDK6, value of the racemate, read-out: Racemate Activity CDK6): 3.5 nM; IC50 (CDK4-CYCLIND1; Racemate Activity CDK4, Table 3, first value of the cell CDK4/CDK6, value of the racemate): 2.1 nM
17 | 13.1 | 8.68 | O=C1NCCC12Cc1cnc(Nc3ccc(N4CCNCC4)nc3)nc1N(C1CCCC1)C2=O (stereo not drawn) [Example D7, 8-cyclopentyl-2-((6-(piperazin-1-yl)pyridin-3-yl)amino)-5,8-dihydro-7H-spiro[pyrido[2,3-d]pyrimidine-6,3′-pyrrolidine]-2′,7-dione] | 
18 | 141 | 34.8 | CN1C(=O)CC2(Cc3cnc(Nc4ccc(N5CCNCC5)c(F)c4)nc3N(C3CCCC3)C2=O)C1=O (stereo not drawn) [Example D27, 8-cyclopentyl-2-((3-fluoro-4-(piperazin-1-yl)phenyl)amino)-1′-methyl-5,8-dihydro-7H-spiro[pyrido[2,3-d]pyrimidine-6,3′-pyrrolidine]-2′,5′,7-trione] | 
19 | 3.94 | 1.88 | CC(C)N1CCN(c2ccc(Nc3ncc4c(n3)N(C3CCCC3)C(=O)C3(CCNC3=O)C4)cn2)CC1 (stereo not drawn) [Example D6, 8-cyclopentyl-2-((6-(4-isopropylpiperazin-1-yl)pyridin-3-yl)amino)-5,8-dihydro-7H-spiro[pyrido[2,3-d]pyrimidine-6,3′-pyrrolidine]-2′,7-dione] | 
20 | 628 | 185 | CN1C(=O)CC2(Cc3cnc(Nc4ccc(OCCN5CCCC5)nc4)nc3N(C3CCCC3)C2=O)C1=O (stereo not drawn) [Example D31, 8-cyclopentyl-1′-methyl-2-((6-(2-(pyrrolidin-1-yl)ethoxy)pyridin-3-yl)amino)-5,8-dihydro-7H-spiro[pyrido[2,3-d]pyrimidine-6,3′-pyrrolidine]-2′,5′,7-trione] | 
21 | 15.8 | 7.08 | O=C1NCCC12Cc1cnc(Nc3ccc(OCCN4CCCC4)nc3)nc1N(C1CCCC1)C2=O (stereo not drawn) [Example D15, 8-cyclopentyl-2-((6-(2-(pyrrolidin-1-yl)ethoxy)pyridin-3-yl)amino)-5,8-dihydro-7H-spiro[pyrido[2,3-d]pyrimidine-6,3′-pyrrolidine]-2′,7-dione] | 
22 | 166 | 51.2 | CN1CCN(c2ccc(Nc3ncc4c(n3)N(C3CCCC3)C(=O)C3(CC(=O)N(C)C3=O)C4)cc2)CC1 (stereo not drawn) [Example D21, 8-cyclopentyl-1′-methyl-2-((4-(4-methylpiperazin-1-yl)phenyl)amino)-5,8-dihydro-7H-spiro[pyrido[2,3-d]pyrimidine-6,3′-pyrrolidine]-2′,5′,7-trione] | 
23 | 14.4 | 7.01 | O=C1NCCC12Cc1cnc(Nc3ccc(OCCN4CCCCC4)nc3)nc1N(C1CCCC1)C2=O (stereo not drawn) [Example D35] | 
24 |  |  | CC(C)N1CCN(c2ccc(Nc3ncc4c(n3)N(C3CCCC3)C(=O)[C@]3(CCNC3=O)C4)cn2)CC1 [Example D151, (S)-8-cyclopentyl-2-((6-(4-isopropylpiperazin-1-yl)pyridin-3-yl)amino)-5,8-dihydro-7H-spiro[pyrido[2,3-d]pyrimidine-6,3′-pyrrolidine]-2′,7-dione] | IC50 (CDK6-CYCLIND3; [3]): 2.8 nM; IC50 (CDK4-CYCLIND1; [4]): 1.75 nM
25 | 7.1 | 3.87 | O=C1NCCC12Cc1cnc(Nc3ccc(N4CCC(N5CCOCC5)CC4)c(F)c3)nc1N(C1CCCC1)C2=O (stereo not drawn) [Example D38, 8-cyclopentyl-2-((3-fluoro-4-(4-morpholinopiperidin-1-yl)phenyl)amino)-5,8-dihydro-7H-spiro[pyrido[2,3-d]pyrimidine-6,3′-pyrrolidine]-2′,7-dione] | 
26 | 4.93 | 2.12 | O=C1NCCC12Cc1cnc(Nc3ccc(N4CC5(CNC5)C4)cc3)nc1N(C1CCCC1)C2=O (stereo not drawn) [Example D40, 2-((4-(2,6-diazaspiro[3.3]heptan-2-yl)phenyl)amino)-8-cyclopentyl-5,8-dihydro-7H-spiro[pyrido[2,3-d]pyrimidine-6,3′-pyrrolidine]-2′,7-dione] | 
